From patent publication US20260108527A1, “POLO LIKE KINASE 4 INHIBITORS” (ORIC Pharmaceuticals, Inc., priority 2022, published 2026)

Assays:
human recombinant PLK4 = target: T1, human recombinant PLK4 (Homo sapiens, UniProt O00444); experiment: PLK4 Biochemical Assay (ADP-Glo); conditions: 0.5 nM PLK4, 8.0 μM ATP, 4.7 μM MBP, 6 hours at RT
T1 construct: purchased ThermoFisher PV6396
T1 sequence (O00444 1-970): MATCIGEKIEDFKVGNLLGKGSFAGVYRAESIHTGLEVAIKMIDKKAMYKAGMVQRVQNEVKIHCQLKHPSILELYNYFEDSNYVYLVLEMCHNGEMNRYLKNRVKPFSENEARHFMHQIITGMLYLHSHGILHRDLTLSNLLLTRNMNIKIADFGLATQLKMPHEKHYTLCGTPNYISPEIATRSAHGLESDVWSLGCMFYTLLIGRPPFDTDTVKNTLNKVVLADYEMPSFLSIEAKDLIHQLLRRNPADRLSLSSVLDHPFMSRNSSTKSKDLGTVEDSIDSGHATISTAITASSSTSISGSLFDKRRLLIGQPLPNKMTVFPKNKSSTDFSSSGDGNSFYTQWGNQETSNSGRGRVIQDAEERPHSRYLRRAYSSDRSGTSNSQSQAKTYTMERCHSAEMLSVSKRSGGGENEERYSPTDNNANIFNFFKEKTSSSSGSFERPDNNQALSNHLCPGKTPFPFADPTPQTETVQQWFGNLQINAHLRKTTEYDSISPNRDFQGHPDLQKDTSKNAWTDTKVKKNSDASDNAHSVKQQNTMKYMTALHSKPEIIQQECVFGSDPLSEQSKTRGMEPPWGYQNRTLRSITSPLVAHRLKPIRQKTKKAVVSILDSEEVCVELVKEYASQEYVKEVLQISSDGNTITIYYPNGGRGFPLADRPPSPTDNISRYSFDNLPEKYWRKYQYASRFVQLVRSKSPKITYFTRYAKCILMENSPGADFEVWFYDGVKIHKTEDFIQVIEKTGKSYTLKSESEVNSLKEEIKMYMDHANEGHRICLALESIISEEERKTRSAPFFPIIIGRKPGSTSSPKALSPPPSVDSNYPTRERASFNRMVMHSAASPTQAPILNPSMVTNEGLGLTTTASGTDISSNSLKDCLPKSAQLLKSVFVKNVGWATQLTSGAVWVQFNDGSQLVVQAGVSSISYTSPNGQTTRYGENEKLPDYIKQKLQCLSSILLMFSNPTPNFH
Outline: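 PLK4 at 1.0 nM in HEPES pH 7.5 buffer with 10 mM MgCl2, 1 mM EGTA, 1 mM DTT, preincubated 15 min at RT with compound. ADP formed quantified by ADP-Glo luminescence after ATP depletion. IC50 from four-parameter non-linear regression.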

[1] = target: T2, human recombinant Aurora A (Homo sapiens, UniProt O14965); experiment: Aurora A Kinase Biochemical Assay (ADP-Glo); conditions: selectivity ratio; Aurora A 2.5 nM, 20 μM ATP
T2 construct: purchased ThermoFisher PR5935A
T2 sequence (O14965 1-403): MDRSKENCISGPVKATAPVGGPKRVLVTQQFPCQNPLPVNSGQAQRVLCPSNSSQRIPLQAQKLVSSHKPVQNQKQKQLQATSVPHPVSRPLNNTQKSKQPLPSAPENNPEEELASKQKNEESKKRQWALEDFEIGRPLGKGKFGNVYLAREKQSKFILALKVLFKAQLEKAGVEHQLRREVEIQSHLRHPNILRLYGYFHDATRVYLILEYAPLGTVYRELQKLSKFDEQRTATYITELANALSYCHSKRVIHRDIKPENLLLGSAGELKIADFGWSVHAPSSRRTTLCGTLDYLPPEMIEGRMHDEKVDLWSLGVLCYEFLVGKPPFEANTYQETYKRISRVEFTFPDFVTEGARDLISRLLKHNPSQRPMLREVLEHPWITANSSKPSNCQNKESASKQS
Outline: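 Human recombinant Aurora A at 2.5 nM final was preincubated with compound (11-point, 3-fold titration) for 15 min at RT, then reacted with 20 μM ATP and 4.7 μM MBP for 2 h at RT in HEPES pH 7.5 buffer. ADP formed was read by ADP-Glo luminescence; IC50 from four-parameter fit.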

In the case of COc1ccc2c(c1)[C@]1(C[C@H]1c1ccc3c(Nc4ccc(-c5nnn(C)n5)cc4OC)n[nH]c3c1)C(=O)N2 [Example 17, (1R,2S)-5′-methoxy-2-{3-[2-methoxy-4-(2-methyl-2H-tetrazol-5-yl)anilino]-1H-indazol-6-yl}spiro[cyclopropane-1,3′-indol]-2′(1′H)-one], the IC50 (human recombinant PLK4) is reported as 2 nM and the “[Aurora A IC50 (nM)]/[PLK4 IC50 (nM)]” value [1] is reported as 1000.
For CCOc1cc(S(C)(=O)=O)ccc1Nc1n[nH]c2cc([C@@H]3C[C@@]34C(=O)N(C)c3ccc(OC)cc34)ccc12 [Example 23, (1R,2S)-2-{3-[2-ethoxy-4-(methanesulfonyl)anilino]-1H-indazol-6-yl}-5′-methoxy-1′-methylspiro[cyclopropane-1,3′-indol]-2′(1′H)-one], the IC50 (human recombinant PLK4) was 1.41 nM and the “[Aurora A IC50 (nM)]/[PLK4 IC50 (nM)]” value [1] was 2258.3629.
COc1ccc2c(c1)[C@]1(C[C@H]1c1ccc3c(Nc4nc(N(C)C)ncc4OC)n[nH]c3c1)C(=O)N2 [Example 20, (1R,2S)-2-(3-{[2-(dimethylamino)-5-methoxypyrimidin-4-yl]amino}-1H-indazol-6-yl)-5′-methoxyspiro[cyclopropane-1,3′-indol]-2′(1′H)-one] was tested, and the IC50 (human recombinant PLK4) was 2.8 nM and the “[Aurora A IC50 (nM)]/[PLK4 IC50 (nM)]” value [1] was 170.
With CCOc1cnc(-c2nccs2)nc1Nc1n[nH]c2cc([C@@H]3C[C@@]34C(=O)Nc3ccc(OC)cc34)ccc12 [Example 44, (1R,2S)-2-(3-{[5-ethoxy-2-(1,3-thiazol-2-yl)pyrimidin-4-yl]amino}-1H-indazol-6-yl)-5′-methoxyspiro[cyclopropane-1,3′-indol]-2′(1′H)-one] the IC50 (human recombinant PLK4) was 0.16 nM and the “[Aurora A IC50 (nM)]/[PLK4 IC50 (nM)]” value [1] was 702.5.
CCOc1cc2ccccc2nc1Nc1n[nH]c2cc([C@@H]3C[C@@]34C(=O)Nc3ccc(OC)cc34)ccc12 [Example 8, (1R,2S)-2-{3-[(3-ethoxyquinolin-2-yl)amino]-1H-indazol-6-yl}-5′-methoxyspiro[cyclopropane-1,3′-indol]-2′(1′H)-one] was tested, and the IC50 (human recombinant PLK4) was 1.83 nM and the “[Aurora A IC50 (nM)]/[PLK4 IC50 (nM)]” value [1] was 27382.2563.
In the case of COc1ccc2c(c1)[C@]1(C[C@H]1c1ccc3c(Nc4cc(-c5ccon5)ccc4OC)n[nH]c3c1)C(=O)N2 [Example 32, (1R,2S)-5′-methoxy-2-{3-[2-methoxy-5-(1,2-oxazol-3-yl)anilino]-1H-indazol-6-yl}spiro[cyclopropane-1,3′-indol]-2′(1′H)-one], the IC50 (human recombinant PLK4) is reported as 0.827 nM and the “[Aurora A IC50 (nM)]/[PLK4 IC50 (nM)]” value [1] is reported as 325.6348.
COc1ccc2c(c1)[C@]1(C[C@H]1c1ccc3c(Nc4cc(-c5cnn(C)c5)cnc4OC)n[nH]c3c1)C(=O)N2 [Example 26, (1R,2S)-5′-methoxy-2-(3-{[2-methoxy-5-(1-methyl-1H-pyrazol-4-yl)pyridin-3-yl]amino}-1H-indazol-6-yl)spiro[cyclopropane-1,3′-indol]-2′(1′H)-one] was tested, and the IC50 (human recombinant PLK4) was 0.84 nM and the “[Aurora A IC50 (nM)]/[PLK4 IC50 (nM)]” value [1] was 992.1456.
CCOc1ncc(-c2nccs2)cc1Nc1n[nH]c2cc([C@@H]3C[C@@]34C(=O)Nc3ccc(OC)cc34)ccc12 [Example 41, (1R,2S)-2-(3-{[2-ethoxy-5-(1,3-thiazol-2-yl)pyridin-3-yl]amino}-1H-indazol-6-yl)-5′-methoxyspiro[cyclopropane-1,3′-indol]-2′(1′H)-one] was tested, and the IC50 (human recombinant PLK4) was 0.722 nM and the “[Aurora A IC50 (nM)]/[PLK4 IC50 (nM)]” value [1] was 4711.9113.
For COc1ccc2c(c1)[C@]1(C[C@H]1c1ccc3c(Nc4ccc(S(C)(=O)=O)cc4OC)n[nH]c3c1)C(=O)N2 [Example 2, (1R,2S)-2-{3-[4-(methanesulfonyl)-2-methoxyanilino]-1H-indazol-6-yl}-5′-methoxyspiro[cyclopropane-1,3′-indol]-2′(1′H)-one], the IC50 (human recombinant PLK4) was 0.576 nM and the “[Aurora A IC50 (nM)]/[PLK4 IC50 (nM)]” value [1] was 801.1462.
COc1ccc2c(c1)[C@]1(C[C@H]1c1ccc3c(Nc4nc(-c5cnco5)ncc4OC)n[nH]c3c1)C(=O)N2 [Example 40, (1R,2S)-5′-methoxy-2-(3-{[5-methoxy-2-(1,3-oxazol-5-yl)pyrimidin-4-yl]amino}-1H-indazol-6-yl)spiro[cyclopropane-1,3′-indol]-2′(1′H)-one] was tested, and the IC50 (human recombinant PLK4) was 0.28 nM and the “[Aurora A IC50 (nM)]/[PLK4 IC50 (nM)]” value [1] was 288.4.
COc1ccc2c(c1)[C@]1(C[C@H]1c1ccc3c(Nc4cc(-c5nnn(C)n5)ccc4OC)n[nH]c3c1)C(=O)N2 [Example 21, (1R,2S)-5′-methoxy-2-{3-[2-methoxy-5-(2-methyl-2H-tetrazol-5-yl)anilino]-1H-indazol-6-yl}spiro[cyclopropane-1,3′-indol]-2′(1′H)-one] was tested, and the IC50 (human recombinant PLK4) was 2.6 nM and the “[Aurora A IC50 (nM)]/[PLK4 IC50 (nM)]” value [1] was 1900.
With COc1ccc2c(c1)[C@]1(C[C@H]1c1ccc3c(Nc4cc(-c5nccs5)ccc4OC)n[nH]c3c1)C(=O)N2 [Example 14, (1R,2S)-5′-methoxy-2-{3-[2-methoxy-5-(1,3-thiazol-2-yl)anilino]-1H-indazol-6-yl}spiro[cyclopropane-1,3′-indol]-2′(1′H)-one] the IC50 (human recombinant PLK4) was 0.639 nM and the “[Aurora A IC50 (nM)]/[PLK4 IC50 (nM)]” value [1] was 187.4804.
